Test results reported in patent US8227463B2, “Amorphous body composed of heterocyclic compound, solid dispersion and pharmaceutical preparation each comprising the same, and process for production of the same” (Zenyaku Kogyo Kabushiki Kaisha, priority 2007, dated 2012).

How the values were obtained:
[1] = Blood concentration measurement of the test compound in rats after oral administration of the preparations; assay type: in vivo, SD male rats
Experimental: 7-week old SD male rats were purchased from Charles River Laboratories Japan (Inc.), preliminarily kept for a week and then used for experiments. Fasting began 16 hours before drug administration, and each of the preparations obtained from Examples 1, 4 and 5, when used, was mixed with distilled water to make a 100 mg/5 ml/kg test compound suspension, which was administered orally. Blood was sequentially collected from the tail vein using heparin-treated glass blood collection tubes from 15 min. to 24 or 30 hours after the administration of these preparations, centrifuged (3,000 rpm, 10 min., 4° C.) to obtain plasma, and the blood concentration of the test compound was evaluated (FIG. 3).

[2] = Changes in the state of the amorphous body on storage, analysed by powder X-ray diffraction; assay type: physicochemical; conditions: ordinary temperature
Experimental: When a crystal of the test compound obtained by common procedures was analyzed using the powder X-ray diffraction method, several characteristic peaks at diffraction angles 2θ=5 to 14, and especially at 2θ=7 to 10, were observed (FIG. 1). In contrast, when the preparations obtained in Examples 1 and 2 were analyzed using the powder X-ray diffraction (XRD) method, the peaks at diffraction angles characteristic to a crystalline form were not observed, and it was clear that the test compound was in an amorphized state in these preparations (FIG. 2).
In order to investigate the changes in the state of an amorphous body of the test compound, a solid dispersion produced by the spray drying method with a 1:2.5 test compound to HPMC compounding ratio was stored under certain conditions, and changes in the state of the amorphous body of the test compound were analyzed by powder X-ray diffraction similar to Example 3.
The present tablets were filled into a glass jar, sealed and evaluated for the stability of the amorphous body after 6 months of storage at 40° C. (75% RH).

Compound | Bioavailability in rats after grain refinement ([1]; grain refinement using a jet mill, a microfluidizer or an agitation mill) | Stability of the amorphous state over time [2] | Bioavailability / absorbability of amorphized test compound ([1]; compared to the crystallized form)
FC(F)c1nc2ccccc2n1-c1nc(N2CCOCC2)nc(N2CCOCC2)n1 [test compound, 2-(2-difluoromethylbenzimidazol-1-yl)-4,6-dimorpholino-1,3,5-triazine] | an improvement in the bioavailability was not observed | – | –
FC(F)c1nc2ccccc2n1-c1nc(N2CCOCC2)nc(N2CCOCC2)n1 [amorphous form of the test compound, 2-(2-difluoromethylbenzimidazol-1-yl)-4,6-dimorpholino-1,3,5-triazine] | – | stable for a long period of time at ordinary temperature | extremely high absorbability
